Source: US10550095B2, “Cancerous cell growth inhibiting compounds” (WISYS TECHNOLOGY FOUNDATION, INC., priority 2016, dated 2020)
“And” between values parts separate entries of the source, which are not always exact repeats. Equal entries are not always repeated. “Also recorded” adds a separate entry of the source.

Key:
zebrafish embryos [1] = assay: Inhibition of melanin synthesis in zebrafish embryos, treated 24-76 hpf (Protocol 1); type: in vivo; settings: zebrafish embryos treated 24-76 hpf
Experimental: (§1) The testing protocols for these compounds are as follows: • a. […] The embryos were monitored and imaged throughout their development to track the development of melanin pigment relative to a control group to which water was administered (Protocol 1). • b. […] The embryos were again monitored and imaged throughout their development relative to a control group to which water was administered (Protocol 2). • c. Additionally, to test the ability of the pigment to recover after being treated with our drugs, all embryos were treated at 24 hpf with the chemicals until the 48 hpf or 64 hpf time period, then washed with water to remove the treatment. The embryos were again monitored and imaged throughout their development relative to a control group to which water was administered (Protocol 3).
(§2) The black pigment (or melanin) is very easy to observe in zebrafish. In brief, adult zebrafish are taken to breed embryos. Morphologically normal embryos of 24 hours post fertilization (hpf) stage were selected for incubation in the drugs from 24 to 76 hours. During the incubation, the embryos are monitored and imaged (see FIGS. 1 and 3) to track the development of melanin. […] To broaden the comparison with other skin-whitening products, this project can also test at least three other compounds, Kojic acid, Gallic acid and Haginin. […] In the meantime, the whole organism context also allows us to examine the toxicological profile, if any, of these compounds.

zebrafish embryos [2] = assay: Effect on existing melanin and/or melanocytes, embryos treated at 48 hpf (Protocol 2); type: in vivo
Experimental: (§3) The testing protocols for these compounds are as follows: • a. […] The embryos were monitored and imaged throughout their development to track the development of melanin pigment relative to a control group to which water was administered (Protocol 1). • b. To test the effects of the drugs on existing melanin and/or melanocytes, the embryos were treated with the chemicals at 48 hpf, after pigment had developed. The embryos were again monitored and imaged throughout their development relative to a control group to which water was administered (Protocol 2). • c. Additionally, to test the ability of the pigment to recover after being treated with our drugs, all embryos were treated at 24 hpf with the chemicals until the 48 hpf or 64 hpf time period, then washed with water to remove the treatment. The embryos were again monitored and imaged throughout their development relative to a control group to which water was administered (Protocol 3).
To test the effects of the drugs on existing melanin and/or melanocytes, the embryos were treated with the chemicals A11, MEK-I and PTU at 48 hpf, after pigment had developed. The embryos were again monitored and imaged throughout their development according to Protocol 2.

zebrafish embryos [3] = assay: Pigment recovery after compound withdrawal (Protocol 3); type: in vivo; settings: treated 24-48 hpf or 24-64 hpf, then washed, by 72 hpf
Experimental: as §3
It has been reported that melanin usually reappears after the withdrawal of skin whitening products. […] The pigmentation was monitored closely for 48-72 hours. Similarly, this experiment was repeated at least three times to gain a reproducible result.

zebrafish embryos [4] = assay: Skin Lightening Efficacy of All Analogs on Zebrafish Embryos (Table 1); type: in vivo; settings: concentration not given
Experimental: as §1, §2

B16-F10 melanoma cells [5] = assay: cells; type: cell-based
B16-F10 melanoma cells [6] = assay: Melanin in melanoma cells; type: cell-based, mouse; settings: for Melanin: melanoma cells
Text: (MEK-I is a known MEK inhibitor as a comparison purchased from Sigma): […]

[7] = system: primary human melanocytes; assay: Growth of normal melanocytes; type: cell-based
Experimental: These cells proliferate slowly making it difficult to gather enough cells for experiments with all the A11 analogs. […] In the second experiment, A7 and a few other compounds were evaluated. […] At 10 μM, FSK-03-92 caused near 80% lethality (comparing with the 20% kill by 10 μM FSK-03-92 on melanoma cells in FIG. 14).

[8] = system: transgenic melanoma zebrafish embryos; assay: Melanoma formation and recovery in transgenic melanoma zebrafish embryos; type: in vivo
Experimental: (§4) The intracellular signaling pathway that involves Raf and MEK is known to be the major pathway to regulate cell proliferation. Many current melanoma drugs such as cobimetinib works by inhibiting Raf or MEK. While they are effective in inhibiting melanoma growth, they exert different degrees of side effect on normal cells by inhibiting the Raf-MEK pathway. […] Also, with regard to FIG. 13, the compound SK-03-92 is shown to inhibit melanoma cell growth by approximately 10% at 10 μM and at 100% at 40 μM.

melanoma cells = assay: Mitotic index of melanoma cells (anti-phospho-histone H3 antibody); type: cell-based, mouse; settings: anti-phospho-histone H3 (FIG. 16)
[9] = system: melanocytes in zebrafish embryos; assay: Mitotic index of melanocytes in zebrafish embryos; type: in vivo; settings: zebrafish embryo (FIG. 17)
[10] = system: melanocytes in zebrafish embryos; assay: TUNEL assay, melanocyte apoptosis in normal and transgenic melanoma-forming zebrafish embryos; type: in vivo; settings: normal and transgenic melanoma-forming embryos (FIGS. 18A-18B)
MAPK = assay: Western blot for phosphorylated MAPK in melanoma cells; type: cell-based, mouse; settings: melanoma cells (FIG. 19A)
Text: We wanted to further understand the molecular mechanism of A11 and its derivatives by examining the activities of MAPK, Akt, and PRPP pathways which regulate cell proliferation and cell death.
MAPK is involved in the major cell proliferation signaling pathway. In many cancer cells, MAPK is activated at high level by phosphorylation. Using the anti-phosphorylated-MAPK (p-MAPK) on western blot, it is very easy to understand the proliferation ability in cells. […] While the results are against our hypothesis and current understanding, it raises a very interesting mechanism of A11 which requires further investigation. […] The current understanding is that activated MAPK and Akt both lead to cell proliferation.

Akt = assay: Western blot for phosphorylated Akt in melanoma cells; type: cell-based, mouse; settings: western blot (FIG. 19B)
MITF [11] = assay: Western blot for MITF protein level in B16-F10 cells; type: cell-based, mouse; settings: western blot vs DMSO control (FIG. 21)
Text: (§5) To understand how A11 inhibits melanoma proliferation, we examined the MITF expression level in A11-treated B16-F10 cells by western blot and RT-qPCR.

MITF [12] = assay: RT-qPCR of MITF (mit-f) in melanoma cells; type: cell-based, mouse
Text: as §5
(§6) The results of several qPCR experiments using melanoma cells were compiled in FIG. 20. Pax3 and sox10 are genes determine the melanocyte precursors while mit-f is the specific transcription factor that initiates melanocyte differentiation. Dct and tyr genes are expressed in differentiated melanocytes. […] The decrease in magnitude is not significant likely due to the very heterogeneous cell types in melanoma.

Pax3 = assay: RT-qPCR of Pax3 in melanoma cells; type: cell-based, mouse
Text: as §5, §6

[13] = system: DCT (dopachrome tautomerase); assay: RT-qPCR of DCT in melanoma cells; type: cell-based, mouse
Text: as §5, §6

tyrosinase [14] = assay: RT-qPCR of tyrosinase in melanoma cells; type: cell-based, mouse
Text: as §5, §6

[15] = system: dct-expressing cells (differentiated melanocytes); assay: In situ hybridization for the dct gene in zebrafish embryos; type: in vivo; settings: zebrafish embryos (FIG. 22)
Text: To further understand the mechanism of A11, we examined the development of melanocytes by in situ hybridization for the dct (dopachrome tautomerase) gene which is expressed in differentiated melanocytes.

tyrosinase [16] = assay: Effect on tyrosinase expression (FIG. 8)
Text: FIG. 8 is a graph of the effects of various pigment reducing compositions on tyrosinase expression;
as §4

MEK = MEK activity (FIG. 12)
Text: FIG. 12 are photo illustrations of MEK activity with exemplary embodiments of the human drug treatments of the present invention; and
as §4

Q: For `COc1cc(O)cc(/C=C/Oc2ccccc2C)c1` [Analog A11, 2-Methylphenyl-E-(3-hydroxy-5-methoxy)-styryl Ether], which “pigmentation inhibition (in words)” value (zebrafish embryos [1]) is on record?
A: nearly complete pigmentation loss; also recorded: inhibits pigmentation formation

Q: And the Pigmentation (zebrafish embryos [1]; 10 μM)?
A: < 5%

Q: What about the existing pigment remaining (zebrafish embryos [2]) of the same molecule?
A: 20%

Q: What about the “pigmentation recovered after wash-off” value (zebrafish embryos [3]) of the same molecule?
A: 50%

Q: What about the “pigmentation recovered after wash-off” value (zebrafish embryos [3]; listed as A-11) of the same molecule?
A: approximately 50%

Q: What about the Pigmentation (zebrafish embryos [4]) of the same molecule?
A: 10%

Q: And the “Average Melanoma growth (from the previous chart)” value (shortened to “Average Melanoma growth”) (B16-F10 melanoma cells [5]; 2 μM)?
A: 86%

Q: And the “Average Melanoma growth” value (B16-F10 melanoma cells [5]; 10 μM)?
A: 88%

Q: What about the “Average Melanoma growth” value (B16-F10 melanoma cells [5]; 20 μM) of the same molecule?
A: 81%

Q: And the “Average Melanoma growth” value (B16-F10 melanoma cells [5]; 40 μM)?
A: 50%

Q: And the “cell proliferation compared to the control” value (B16-F10 melanoma cells [5]; 40 μM (FIG. 14))?
A: 50%

Q: What about the EC50 (B16-F10 melanoma cells [5]; Mus musculus, B16-F10, melanoma cells (FIG. 14), read-out: EC50 in inhibiting melanoma growth) of the same molecule?
A: ~40 µM

Q: What about the “melanoma cell death (in words)” value (B16-F10 melanoma cells [5]; any of the tested concentrations) of the same molecule?
A: no cell death was observed

Q: What about the “inhibition of melanoma cell growth / cell number (in words)” value (B16-F10 melanoma cells [5]; melanoma cells) of the same molecule?
A: decrease of melanin as well as the cell number

Q: And the Growth (B16-F10 melanoma cells [5]; melanoma cells, 2 μM)?
A: 86%

Q: And the Growth (B16-F10 melanoma cells [5]; melanoma cells, 10 μM)?
A: 88% and 92% and 101% and 69%

Q: And the Growth (B16-F10 melanoma cells [5]; melanoma cells, 20 μM)?
A: 81% and 80%

Q: What about the Melanin (B16-F10 melanoma cells [6]; 2 μM) of the same molecule?
A: 99%

Q: What about the Melanin (B16-F10 melanoma cells [6]; 10 μM) of the same molecule?
A: 104% and 84% and 97% and 95% and 100%

Q: And the Melanin (B16-F10 melanoma cells [6]; 20 μM)?
A: 101% and 92%

Q: What about the Melanin (B16-F10 melanoma cells [6]; 40 μM) of the same molecule?
A: 84% and 68% and 56%

Q: What about the “melanin in B16-F10 cells (in words)” value (B16-F10 melanoma cells [6]; mouse cell line B16-F10) of the same molecule?
A: decrease of melanin

Q: And the “toxicity to normal melanocytes (in words)” value [7]?
A: does not seem to cause high toxicity

Q: And the “inhibition of growth of normal melanocytes (in words)” value ([7]; 10 μM)?
A: did not show any inhibition

Q: And the “formation and recovery of melanoma (in words)” value [8]?
A: inhibited the formation and recovery of melanoma; also recorded: inhibit both the formation of melanoma and the recovery of melanoma

Q: What about the “mitotic index of melanoma cells (in words)” value (melanoma cells) of the same molecule?
A: significantly lower mitotic index

Q: And the “mitosis / mitotic index of melanocytes (in words)” value [9]?
A: reduces mitosis

Q: What about the “melanocyte apoptosis / cell death (in words)” value [10] of the same molecule?
A: does not induce apoptosis; also recorded: no significant difference

Q: And the “amount of p-MAPK / MAPK activity (in words)” value (MAPK)?
A: significantly increase the MAPK activity; also recorded: increases the amount of p-MAPK

Q: And the “phosphorylated Akt (in words)” value (Akt)?
A: slight increase of phosphorylated Akt

Q: What about the “MITF protein level (in words)” value (MITF [11]) of the same molecule?
A: distinguishably lower

Q: And the “MITF (mit-f) mRNA expression (in words)” value (MITF [12])?
A: lower amount of MITF mRNA; also recorded: expressed at high level; also recorded: decreases the expression of mit-f gene

Q: And the “Pax3 expression (in words)” value (Pax3)?
A: reduces Pax3 expression

Q: What about the “DCT expression (in words)” value [13] of the same molecule?
A: decreased

Q: And the “tyrosinase expression (in words)” value (tyrosinase [14])?
A: decreased

Q: What about the “number of dct-expressing cells (in words)” value [15] of the same molecule?
A: significantly lower than in the control

Q: What about the “tyrosinase formation (in words)” value (tyrosinase [16]) of the same molecule?
A: not to inhibit tyrosinase formation

Q: What about the “MEK activity (in words)” value (MEK) of the same molecule?
A: increasing MEK activity
